Experiments:
[1] = tested on: skin (both cheeks) of test persons; assay: In-vivo half-side cheek test of cooling intensity of O/W cream samples (20 panellists, scale 1-10, 30 minutes); set-up: species or system human; conditions: FIG. 1
Protocol: The aim of the human in vivo studies was to test the effect of the cooling mixture according to the invention in O/W formulations with regard to their cooling intensity. What was to be examined here was whether the cooling effect/cooling intensity of 5-methyl-2-(propane-2-yl)cyclohexyl-N-ethyloxamate will be enhanced in the combination of active substances according to the invention. Each individual test was carried out using 20 panellists under standardized conditions in a test institute. To this end, each test person spread two defined quantities of cream samples onto both cheeks at the same time. […] Upon application of the samples, the test persons evaluated the cooling intensities on a scale of 1-10 within a period of 30 minutes (1=weak; 10=strong). The studies were carried out as double blind studies, therefore the test institute received the formulations in an encoded form. In order to ensure test standardization, the following conditions were selected: • Controlled ventilation and temperature conditions in the room of the test persons • Use of a standardized test protocol • Detailed explanation of the test protocol • Samples were given to the test persons in uniform, clear containers • Samples were labeled with a three-digit code • A sample amount of 0.3 g of cream was applied onto each cheek • Samples were covered with a lid in order to avoid drying out of the samples • Test persons were instructed not to use any makeup on the day of the test and not to use any cosmetic products at least two hours before the test • The test persons evaluated the cooling effect of the two products on a scale of 1-10 (1=weak, 10=strong) at 32 identical points in time
The data obtained during the studies was examined with regard to any significant differences between the two samples. To this end, the data was initially examined for standard normal distribution. Provided the data met the criteria of a standard normal distribution, a pairwise t test was carried out. […] Where no normal distribution of the values was found, significance was determined via a non-parametric Wilcoxon. […]

skin = assay: Cooling effect of the formulation examples as perceived by the test persons; type: in vivo, human
Source text: Provided the corresponding formulations also contained trans-4-tert. butylcyclohexanol, the cooling effect was even further enhanced compared to formulations without this compound.

CCNC(=O)C(=O)O[C@@H]1C[C@H](C)CC[C@H]1C(C)C [MEO, (1R,2S,5R)-5-methyl-2-(propane-2-yl)cyclohexyl N ethyl oxamate]
cooling effect (cooling intensity, scale 1-10) ([1]; O/W emulsion with 1.0 % MEO, 0.3 g cream per cheek, 20 panellists): marked cooling effect | onset of the cooling effect ([1]; after application of the formulation onto the cheek): immediately upon application | duration of the cooling effect ([1]; evaluation period 30 minutes): more than 30 minutes

CCCCCCCCC(O)CO (centres unmarked) [1,2-decanediol]
enhancement of cooling effect when 1,2-pentanediol is replaced (skin; 1,2-pentanediol replaced with 1,2-decanediol in an amount of one fifth of the pentanediol): applies analogously

CCCCC(O)CO (centres unmarked) [1,2-hexanediol]
enhancement of cooling effect when 1,2-pentanediol is replaced (skin; 1,2-pentanediol in the formulations replaced with 1,2-hexanediol at a ratio of 5:3): comparable effects are achieved
